We go through 71 compounds from ChEMBL document CHEMBL1146317, “2-(2,2,2-Trifluoroethyl)-5,6-dichlorobenzimidazole derivatives as potent androgen receptor antagonists” (Bioorg Med Chem Lett, 2007).

Structures are written as SMILES. Calls of active or inactive are those of the source. The rule behind the calls is not given here.

The species entered for one series is Rattus norvegicus. Briefly: Toxicity in castrated immature Sprague-Dawley rat at 2 mg/day. The conditions noted are these: in vivo.
Regarding `FC(F)(F)C(F)(F)c1nc2cc(Cl)c(Cl)cc2[nH]1`, the Activity entry was “Toxic”.

Another series is filed under the species Rattus norvegicus. Briefly: Inhibition of testoterone-induced prostate weight in castrated immature Sprague-Dawley rat at 1 mg/day relative to control. Format: functional, Prostate gland.
Details: not given
On to `FC(c1nc2cc(Cl)c(Cl)cc2[nH]1)C(F)(F)F` (centres undefined), for which the Inhibition (usually how much of the control response was suppressed) worked out at 81%.

For a further series, the species on record is Rattus norvegicus. Briefly: Inhibition of testoterone-induced prostate weight in castrated immature Sprague-Dawley rat. The class given is functional, Prostate gland.
Details: not given
As to `FC(F)(F)Cc1nc2cc(Cl)c(Cl)cc2n1Cc1ccccc1Br`, the ID50 is on record as 0.38 mg/day.
The same measure, in the same setting: as for `FC(F)(F)Cc1nc2cc(Cl)c(Cl)cc2n1Cc1ccccc1-c1ccccc1`, the figure is 0.55 mg/day; as for `CC(O)(CS(=O)(=O)c1ccc(F)cc1)C(=O)Nc1ccc(C#N)c(C(F)(F)F)c1` (centres undefined) [BICALUTAMIDE], 0.23 mg/day.
Still for that read-out and setting: as for `Fc1ccccc1Cn1c(CC(F)(F)F)nc2cc(Cl)c(Cl)cc21`, the figure is 0.82 mg/day; as for `FC(F)(F)Cc1nc2cc(Cl)c(Cl)cc2n1Cc1ccc(Cl)cc1`, 0.28 mg/day; as for `FC(F)(F)Cc1nc2cc(Cl)c(Cl)cc2n1Cc1ccc(Br)cc1`, 0.13 mg/day.
Still for that read-out and setting: in the case of `FC(F)(F)Cc1nc2cc(Cl)c(Cl)cc2n1Cc1cccc(C(F)(F)F)c1` it was 0.4 mg/day; in that of `O=[N+]([O-])c1ccccc1Cn1c(CC(F)(F)F)nc2cc(Cl)c(Cl)cc21`, 0.95 mg/day; in that of `FC(F)(F)Cc1nc2cc(Cl)c(Cl)cc2n1Cc1ccccc1-c1ccccn1`, 0.4 mg/day.
The compound `FC(F)(F)Cc1nc2cc(Cl)c(Cl)cc2n1Cc1ccccc1` had an ID50 of 0.37 mg/day.
Still for that read-out and setting: in the case of `Fc1ccc(Cn2c(CC(F)(F)F)nc3cc(Cl)c(Cl)cc32)cc1` it was 0.19 mg/day; in that of `O=C(Cn1c(CC(F)(F)F)nc2cc(Cl)c(Cl)cc21)c1ccccn1`, 0.47 mg/day.
On the same count and under the same terms, in the case of `FC(F)(F)Cc1nc2cc(Cl)c(Cl)cc2n1Cc1ccccc1Cl` it was 0.26 mg/day.

A further series is filed under the species Rattus norvegicus. Briefly: Inhibition of testoterone-induced prostate weight in castrated immature Sprague-Dawley rat at 2 mg/day relative to control. The class given is functional, Prostate gland.
Details: not given
As for `OC(c1nc2cc(Cl)c(Cl)cc2n1Cc1ccccn1)C(F)(F)F` (centres undefined), the Inhibition is 84%.
Still for that read-out and setting: as for `O=[N+]([O-])c1cccc(Cn2c(CC(F)(F)F)nc3cc(Cl)c(Cl)cc32)c1`, the figure is 49%; as for `FC(F)(F)Cc1nc2cc(Cl)c(Cl)cc2n1Cc1ccccc1-c1cccnc1`, 80%; as for `FC(F)(F)Cc1nc2cc(Cl)c(Cl)cc2n1Cc1ccccc1-c1ccncc1`, 42%.
`Cc1cccc(Cn2c(CC(F)(F)F)nc3cc(Cl)c(Cl)cc32)c1` had an Inhibition of 31%.
`FC(F)(F)Cc1nc2cc(Cl)c(Cl)cc2n1Cc1ccccc1Br` had an Inhibition of 84%.
The same measure, in the same setting: in the case of `OC(O)(c1nc2cc(Cl)c(Cl)cc2[nH]1)C(F)(F)F` it was 94%.
The same measure, in the same setting: as for `FC(F)(F)Cc1nc2cc(Cl)c(Cl)cc2n1Cc1ccccc1-c1ccccc1`, the figure is 79%.
Consider `CCOC(=O)c1ccc(Cn2c(CC(F)(F)F)nc3cc(Cl)c(Cl)cc32)cc1`, for which the Inhibition was found to be 56%.
In the case of `CC(O)(CS(=O)(=O)c1ccc(F)cc1)C(=O)Nc1ccc(C#N)c(C(F)(F)F)c1` (centres undefined) [BICALUTAMIDE], the Inhibition was 70%.
On the same count and under the same terms, in the case of `Fc1ccccc1Cn1c(CC(F)(F)F)nc2cc(Cl)c(Cl)cc21` it was 77%; in that of `FC(F)(F)Cc1nc2cc(Cl)c(Cl)cc2n1Cc1ccc(Cl)cc1`, 77%; in that of `O=C(Cn1c(CC(F)(F)F)nc2cc(Cl)c(Cl)cc21)c1ccc([N+](=O)[O-])cc1`, 71%.
Compound `FC(F)(F)Cc1nc2cc(Cl)c(Cl)cc2n1Cc1ccc(C(F)(F)F)cc1` came in with an Inhibition of 75%.
`O=C(Cn1c(CC(F)(F)F)nc2cc(Cl)c(Cl)cc21)c1ccc(Cl)cc1` had an Inhibition of 33%.
As to `COc1ccc(Cn2c(CC(F)(F)F)nc3cc(Cl)c(Cl)cc32)cc1`, the Inhibition is reported as 51%.
`COCn1c(C(C)(O)C(F)(F)F)nc2cc(Cl)c(Cl)cc21` (centres undefined) yielded an Inhibition of 88%.
`CS(=O)(=O)c1ccc(Cn2c(CC(F)(F)F)nc3cc(Cl)c(Cl)cc32)cc1`: the Inhibition came out at 32%.
Turning to `FC(F)(F)Cc1nc2cc(Cl)c(Cl)cc2n1Cc1ccc(Br)cc1`, the Inhibition turned out to be 75%.
As for `FC(F)(F)Cc1nc2cc(Cl)c(Cl)cc2n1Cc1cccc(C(F)(F)F)c1`, the Inhibition came to 74%.
`Oc1ccc(Cn2c(CC(F)(F)F)nc3cc(Cl)c(Cl)cc32)cc1` yielded an Inhibition of 28%.
On the same count and under the same terms, as for `N#Cc1cccc(Cn2c(CC(F)(F)F)nc3cc(Cl)c(Cl)cc32)c1`, the figure is 70%; as for `FC(F)(F)Cc1nc2cc(Cl)c(Cl)cc2n1Cc1ccccn1`, 89%; as for `O=C(O)c1ccc(Cn2c(CC(F)(F)F)nc3cc(Cl)c(Cl)cc32)cc1`, 38%.
Still for that read-out and setting: in the case of `N#Cc1ccccc1Cn1c(CC(F)(F)F)nc2cc(Cl)c(Cl)cc21` it was 74%; in that of `O=C(Cn1c(CC(F)(F)F)nc2cc(Cl)c(Cl)cc21)c1cccs1`, 43%.
`FC(F)(F)Cc1nc2cc(Cl)c(Cl)cc2n1CCOc1ccc(Cl)cc1` yielded an Inhibition of 48%.
As to `O=C(Cn1c(CC(F)(F)F)nc2cc(Cl)c(Cl)cc21)c1cccc([N+](=O)[O-])c1`, the Inhibition is given as 14%.
Take `OC(O)(c1nc2cc(Cl)c(Cl)cc2n1Cc1ccccc1)C(F)(F)F`: the Inhibition turned out to be 85%.
On the same count and under the same terms, as for `N#Cc1ccc(OCCn2c(CC(F)(F)F)nc3cc(Cl)c(Cl)cc32)cc1`, the figure is 86%; as for `COc1ccccc1C(=O)Cn1c(CC(F)(F)F)nc2cc(Cl)c(Cl)cc21`, 10%; as for `FC(F)(F)Cc1nc2cc(Cl)c(Cl)cc2n1Cc1ccccc1C(F)(F)F`, 86%.
Same read-out and setting: in the case of `OC(c1nc2cc(Cl)c(Cl)cc2n1Cc1ccccc1)C(F)(F)F` (centres undefined) it was 49%; in that of `Cc1ccccc1Cn1c(CC(F)(F)F)nc2cc(Cl)c(Cl)cc21`, 73%.
`COc1ccccc1Cn1c(CC(F)(F)F)nc2cc(Cl)c(Cl)cc21` displayed an Inhibition of 51%.
Regarding `O=[N+]([O-])c1ccccc1Cn1c(CC(F)(F)F)nc2cc(Cl)c(Cl)cc21`, the Inhibition turned out to be 81%.
The compound `FC(F)(F)Cc1nc2cc(Cl)c(Cl)cc2n1Cc1ccc(OC(F)(F)F)cc1` gave an Inhibition of 35%.
On the same count and under the same terms, in the case of `N#Cc1ccc(Cn2c(CC(F)(F)F)nc3cc(Cl)c(Cl)cc32)cc1` it was 68%; in that of `O=C(Cn1c(CC(F)(F)F)nc2cc(Cl)c(Cl)cc21)c1ccc(F)cc1`, 67%.
Same read-out and setting: as for `FC(F)(F)Cc1nc2cc(Cl)c(Cl)cc2n1Cc1ccccc1-c1ccccn1`, the figure is 89%; as for `O=C(Cn1c(CC(F)(F)F)nc2cc(Cl)c(Cl)cc21)c1ccccc1`, 38%; as for `O=S(=O)(Cc1ccccc1Cn1c(CC(F)(F)F)nc2cc(Cl)c(Cl)cc21)c1ccccc1`, 74%.
Take `FC(F)(F)Cc1nc2cc(Cl)c(Cl)cc2n1Cc1ccc(C(F)(F)F)cc1C(F)(F)F`: the Inhibition is listed as 13%.
Turning to `CC(O)(c1nc2cc(Cl)c(Cl)cc2[nH]1)C(F)(F)F` (centres undefined), the Inhibition is listed as 74%.
On the same count and under the same terms, in the case of `Fc1cccc(OCCn2c(CC(F)(F)F)nc3cc(Cl)c(Cl)cc32)c1` it was 22%; in that of `Fc1ccc(OCCn2c(CC(F)(F)F)nc3cc(Cl)c(Cl)cc32)cc1`, 40%.
Same read-out and setting: in the case of `O=C(Cn1c(CC(F)(F)F)nc2cc(Cl)c(Cl)cc21)c1ccc(Br)cc1` it was 27%; in that of `FC(F)(F)Cc1nc2cc(Cl)c(Cl)cc2n1Cc1ccc(SC(F)(F)F)cc1`, 13%; in that of `FC(F)(F)Cc1nc2cc(Cl)c(Cl)cc2[nH]1`, 90%.
Same read-out and setting: as for `FC(F)(F)Cc1nc2cc(Cl)c(Cl)cc2n1Cc1ccc(OCc2ccccc2)cc1`, the figure is 46%.
Compound `OC(c1nc2cc(Cl)c(Cl)cc2[nH]1)C(F)(F)F` (centres undefined) displayed an Inhibition of 96%.
The compound `OCCn1c(CC(F)(F)F)nc2cc(Cl)c(Cl)cc21` showed an Inhibition of 54%.
On the same count and under the same terms, in the case of `FC(F)(F)Cc1nc2cc(Cl)c(Cl)cc2n1Cc1cccc(Cl)c1` it was 35%; in that of `FC(F)(F)Cc1nc2cc(Cl)c(Cl)cc2n1Cc1ccccc1`, 79%; in that of `Fc1cccc(Cn2c(CC(F)(F)F)nc3cc(Cl)c(Cl)cc32)c1`, 55%.
On the same count and under the same terms, in the case of `Fc1ccc(Cn2c(CC(F)(F)F)nc3cc(Cl)c(Cl)cc32)cc1` it was 80%.
As to `CC(O)(c1nc2cc(Cl)c(Cl)cc2n1CC#N)C(F)(F)F` (centres undefined), the Inhibition was determined as 54%.
`CCC(=O)Cn1c(CC(F)(F)F)nc2cc(Cl)c(Cl)cc21` had an Inhibition of 64%.
Still for that read-out and setting: in the case of `O=C(Cn1c(CC(F)(F)F)nc2cc(Cl)c(Cl)cc21)c1ccccn1` it was 76%; in that of `FC(F)(F)Cc1nc2cc(Cl)c(Cl)cc2n1Cc1ccccc1Cl`, 90%; in that of `O=[N+]([O-])c1ccc(Cn2c(CC(F)(F)F)nc3cc(Cl)c(Cl)cc32)cc1`, 61%.
Still for that read-out and setting: in the case of `Fc1c(F)c(F)c(Cn2c(CC(F)(F)F)nc3cc(Cl)c(Cl)cc32)c(F)c1F` it was 19%; in that of `FC(F)(F)Cc1nc2cc(Cl)c(Cl)cc2n1Cc1cccc(OC(F)(F)F)c1`, 26%.

The series is the same for the next values; noted with them: Prostate gland.
`COc1cccc(Cn2c(CC(F)(F)F)nc3cc(Cl)c(Cl)cc32)c1`: the result was inactive.
The same measure, in the same setting: as for `Cn1c(C(C)(O)C(F)(F)F)nc2cc(Cl)c(Cl)cc21` (centres undefined), the entry is “inactive”; as for `O=C(Cn1c(CC(F)(F)F)nc2cc(Cl)c(Cl)cc21)c1cccnc1`, “inactive”.
With `COc1ccc(C(=O)Cn2c(CC(F)(F)F)nc3cc(Cl)c(Cl)cc32)c(OC)c1`, the outcome was inactive.
Same read-out and setting: as for `COc1cccc(C(=O)Cn2c(CC(F)(F)F)nc3cc(Cl)c(Cl)cc32)c1`, the entry is “inactive”.
On the same count and under the same terms, in the case of `CCn1c(C(C)(O)C(F)(F)F)nc2cc(Cl)c(Cl)cc21` (centres undefined) it was “inactive”.
